Assay results taken from ChEMBL document CHEMBL1143144, “Antitumor studies. Part 4: Design, synthesis, antitumor activity, and molecular docking study of novel 2-substituted 2-deoxoflavin-5-oxides, 2-deoxoalloxazine-5-oxides, and their 5-deaza analogs” (Bioorg Med Chem, 2008).
≈ marks a conversion by molar mass, not a printed value.

Columns and labels:
[1] = tested on: KB; test: Antitumor activity against human KB cells by MTT assay; type: functional, cell-based
[2] = tested on: CCRF-HSB-2; test: Antitumor activity against human CCRF-HSB2 cells by MTT assay; type: functional, cell-based

Row | Structure (SMILES) | IC50 [1] | IC50 [2]
1 | CSc1nc2nc3ccccc3cc2c(=O)[nH]1 | 44.1 µg/mL (≈ 181 µM) | 23.2 µg/mL (≈ 95.4 µM)
2 | CSc1nc2n(C)c3c(C)cccc3[n+]([O-])c-2c(=O)n1 | 0.61 µg/mL (≈ 2.12 µM) | 1.46 µg/mL (≈ 5.06 µM)
3 | COc1ccc2c(c1)[n+]([O-])c1c(=O)nc(SC)nc-1n2C | 11 µg/mL (≈ 36.1 µM) | 9.84 µg/mL (≈ 32.3 µM)
4 | COc1ccc2c(c1)n(C)c1nc(SC)nc(=O)c-1[n+]2[O-] | 12.5 µg/mL (≈ 41.1 µM) | 10 µg/mL (≈ 32.9 µM)
5 | CSc1nc2n(C)c3ccc(C)cc3[n+]([O-])c-2c(=O)n1 | 27.7 µg/mL (≈ 96.1 µM) | 17.1 µg/mL (≈ 59.3 µM)
6 | CSc1nc2n(C)c3ccccc3[n+]([O-])c-2c(=O)n1 | 1.44 µg/mL (≈ 5.25 µM) | 1.56 µg/mL (≈ 5.69 µM)
7 | CNc1nc2n(C)c3ccccc3cc-2c(=O)n1 | 14.5 µg/mL (≈ 60.3 µM) | 2.7 µg/mL (≈ 11.2 µM)
8 | CCn1c2nc(=O)[nH]c(=O)c-2nc2ccccc21 | 1.89 µg/mL (≈ 7.8 µM) | 1.57 µg/mL (≈ 6.48 µM)
9 | CCn1c(SC)nc2nc3c(C)cc(C)cc3[n+]([O-])c2c1=O | 10 µg/mL (≈ 31.6 µM) | 5.9 µg/mL (≈ 18.6 µM)
10 | Cc1ccc2c(c1)[n+]([O-])c1c(=O)nc(NCCO)nc-1n2C | 1.7 µg/mL (≈ 5.64 µM) | 1.46 µg/mL (≈ 4.85 µM)
11 | CSc1nc2nc3ccccc3[n+]([O-])c2c(=O)n1C | 9.31 µg/mL (≈ 33.9 µM) | 8.63 µg/mL (≈ 31.5 µM)
12 | CN(C)c1nc2nc3ccccc3nc2c(=O)[nH]1 | 63.1 µg/mL (≈ 262 µM) | 51.2 µg/mL (≈ 212 µM)
13 | COc1ccc2nc3nc(N4CCOCC4)[nH]c(=O)c3nc2c1 | 71.7 µg/mL (≈ 229 µM) | 41.4 µg/mL (≈ 132 µM)
14 | CSc1nc2n(C)c3ccc(Cl)cc3[n+]([O-])c-2c(=O)n1 | 10.8 µg/mL (≈ 35 µM) | 6.66 µg/mL (≈ 21.6 µM)
15 | CCOC(=O)Cn1c(SC)nc2nc3ccccc3[n+]([O-])c2c1=O | 54.8 µg/mL (≈ 158 µM) | 34.2 µg/mL (≈ 98.7 µM)
16 | CSc1nc2nc3ccc(C)cc3[n+]([O-])c2c(=O)[nH]1 | 5.8 µg/mL (≈ 21.1 µM) | 5.86 µg/mL (≈ 21.4 µM)

Row | Structure (SMILES) | IC50 [1] | IC50 [2]
17 | CSc1nc2nc3c(C)cc(C)cc3[n+]([O-])c2c(=O)[nH]1 | 11.8 µg/mL (≈ 40.9 µM) | 6.29 µg/mL (≈ 21.8 µM)
18 | COc1ccc2nc3nc(SC)[nH]c(=O)c3[n+]([O-])c2c1 | 5.35 µg/mL (≈ 18.4 µM) | 4.11 µg/mL (≈ 14.2 µM)
19 | CSc1nc2n(C)c3cc(C)c(C)cc3[n+]([O-])c-2c(=O)n1 | 30 µg/mL (≈ 99.2 µM) | 14.3 µg/mL (≈ 47.3 µM)
20 | CNc1nc2n(C)c3ccccc3[n+]([O-])c-2c(=O)n1 | 6.93 µg/mL (≈ 26.9 µM) | 1.74 µg/mL (≈ 6.76 µM)
21 | CCn1c2nc(NCC(C)C)nc(=O)c-2[n+]([O-])c2ccccc21 | 8.1 µg/mL (≈ 25.8 µM) | 6 µg/mL (≈ 19.1 µM)
22 | Cn1c2nc(=O)[nH]c(=O)c-2nc2ccccc21 | 2.1 µg/mL (≈ 9.2 µM) | 1.8 µg/mL (≈ 7.89 µM)
23 | CCn1c2nc(SC)nc(=O)c-2[n+]([O-])c2ccccc21 | 8.19 µg/mL (≈ 28.4 µM) | 3.72 µg/mL (≈ 12.9 µM)
24 | CSc1nc2nc3ccccc3[n+]([O-])c2c(=O)[nH]1 | 6.76 µg/mL (≈ 26 µM) | 6.77 µg/mL (≈ 26 µM)
25 | COc1ccc2c(c1)[n+]([O-])c1c(=O)[nH]c(=O)nc-1n2C | 6.2 µg/mL (≈ 22.6 µM) | 5.1 µg/mL (≈ 18.6 µM)
26 | CCn1c2nc(SC)nc(=O)c-2[n+]([O-])c2cc(C)ccc21 | 46.3 µg/mL (≈ 153 µM) | 34.7 µg/mL (≈ 115 µM)
27 | Cc1ccc2c(c1)[n+]([O-])c1c(=O)nc(NC3CCCCC3)nc-1n2C | 33.7 µg/mL (≈ 99.3 µM) | 7.1 µg/mL (≈ 20.9 µM)
28 | COc1ccc2c(c1)[n+]([O-])c1c(=O)nc(N3CCCCC3)nc-1n2C | 27.6 µg/mL (≈ 80.9 µM) | 6.18 µg/mL (≈ 18.1 µM)
29 | CSc1nc2nc3ccc(C)cc3[n+]([O-])c2c(=O)n1C | 13.4 µg/mL (≈ 46.5 µM) | 7.74 µg/mL (≈ 26.8 µM)
30 | CSc1nc2nc3c(C)cc(C)cc3[n+]([O-])c2c(=O)n1C | 14.2 µg/mL (≈ 47 µM) | 8.96 µg/mL (≈ 29.6 µM)
31 | Nc1ccn([C@@H]2O[C@H](CO)[C@@H](O)[C@@H]2O)c(=O)n1 [CYTARABINE] | 0.23 µg/mL (≈ 0.946 µM) | 0.047 µg/mL (≈ 0.193 µM)
